# According to ChEMBL document CHEMBL1201862, “PubChem BioAssay data set” (2004):
# The source made the active and inactive calls.
# Columns and labels:
# [1] = biological target: Alkaline phosphatase, placental type (Homo sapiens, UniProt P05187); experiment: human placental alkaline phosphatase inhibition – biochemical, luminescence, confirmation (AID 1512); format: functional
# [2] = biological target: T1, Alkaline phosphatase, tissue-nonspecific isozyme (Homo sapiens, UniProt P05186); experiment: potency against alkaline phosphatase TNAP – biochemical, luminescent, dose response, SAR follow-up (AID 1056)
# T1 sequence (P05186 whole entry): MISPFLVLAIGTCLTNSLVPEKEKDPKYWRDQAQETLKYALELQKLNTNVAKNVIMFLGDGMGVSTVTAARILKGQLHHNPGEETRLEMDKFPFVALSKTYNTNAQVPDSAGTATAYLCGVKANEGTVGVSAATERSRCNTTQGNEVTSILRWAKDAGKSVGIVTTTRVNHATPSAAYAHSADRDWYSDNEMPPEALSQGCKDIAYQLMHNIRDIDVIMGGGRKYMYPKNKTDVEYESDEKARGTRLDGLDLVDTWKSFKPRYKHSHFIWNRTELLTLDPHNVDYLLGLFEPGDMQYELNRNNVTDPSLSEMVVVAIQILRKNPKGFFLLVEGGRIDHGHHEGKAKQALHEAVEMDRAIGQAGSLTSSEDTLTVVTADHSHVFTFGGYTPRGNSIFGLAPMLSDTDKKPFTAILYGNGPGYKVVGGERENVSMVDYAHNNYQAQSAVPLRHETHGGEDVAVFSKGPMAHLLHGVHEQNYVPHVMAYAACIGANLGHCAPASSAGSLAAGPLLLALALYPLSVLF
# [3] = biological target: Glyceraldehyde-3-phosphate dehydrogenase (Homo sapiens, UniProt P04406)
# [4] = biological target: T2, Runt-related transcription factor 1/Core-binding factor subunit beta (Homo sapiens, UniProt Q01196+Q13951); experiment: Runt domain/CBFb-SMMHC interaction disruptors – biochemical, TR-FRET (AID 1438); format: protein assay
# T2 sequence (Q01196 whole entry, the tested form may be a part): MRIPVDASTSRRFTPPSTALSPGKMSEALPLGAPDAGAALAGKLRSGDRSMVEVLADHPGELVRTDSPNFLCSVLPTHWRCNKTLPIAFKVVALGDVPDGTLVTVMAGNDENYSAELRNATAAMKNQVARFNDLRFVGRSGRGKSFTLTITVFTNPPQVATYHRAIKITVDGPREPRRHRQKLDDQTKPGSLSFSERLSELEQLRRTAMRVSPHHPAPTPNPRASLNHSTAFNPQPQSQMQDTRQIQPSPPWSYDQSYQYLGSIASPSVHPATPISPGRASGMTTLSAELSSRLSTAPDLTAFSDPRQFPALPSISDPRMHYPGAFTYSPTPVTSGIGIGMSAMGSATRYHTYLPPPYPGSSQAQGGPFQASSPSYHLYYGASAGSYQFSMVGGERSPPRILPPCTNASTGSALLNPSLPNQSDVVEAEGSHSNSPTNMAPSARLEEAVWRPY
# T2 sequence (Q13951 whole entry, the tested form may be a part): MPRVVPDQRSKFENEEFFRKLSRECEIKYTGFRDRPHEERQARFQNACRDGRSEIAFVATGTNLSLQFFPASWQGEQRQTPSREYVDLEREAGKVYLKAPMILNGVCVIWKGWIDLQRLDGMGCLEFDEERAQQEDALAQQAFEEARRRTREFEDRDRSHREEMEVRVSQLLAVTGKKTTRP
# [5] = viability loss of HPDE-C7K cells – cell-based, fluorescence, HTS, primary screen (AID 431); format: functional; settings: Homo sapiens
# [6] = HPDE-C7 pancreatic duct cell viability loss – fluorescence, HTS (AID 430); format: functional, cell-based; settings: Homo sapiens
# [7] = biological target: T2, Runt-related transcription factor 1/Core-binding factor subunit beta; experiment: disruptors of Runt domain/CBFb-SMMHC interaction – biochemical, FRET, Cerulean-Runt, Venus-CBFb-SMMHC, uHTS, […] (AID 1434); format: protein assay
# Estrogen receptor = biological target: T3, Estrogen receptor (Homo sapiens, UniProt P03372);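 further: potency for inhibiting coactivator peptide recruitment to the receptor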
# T3 sequence (P03372 whole entry): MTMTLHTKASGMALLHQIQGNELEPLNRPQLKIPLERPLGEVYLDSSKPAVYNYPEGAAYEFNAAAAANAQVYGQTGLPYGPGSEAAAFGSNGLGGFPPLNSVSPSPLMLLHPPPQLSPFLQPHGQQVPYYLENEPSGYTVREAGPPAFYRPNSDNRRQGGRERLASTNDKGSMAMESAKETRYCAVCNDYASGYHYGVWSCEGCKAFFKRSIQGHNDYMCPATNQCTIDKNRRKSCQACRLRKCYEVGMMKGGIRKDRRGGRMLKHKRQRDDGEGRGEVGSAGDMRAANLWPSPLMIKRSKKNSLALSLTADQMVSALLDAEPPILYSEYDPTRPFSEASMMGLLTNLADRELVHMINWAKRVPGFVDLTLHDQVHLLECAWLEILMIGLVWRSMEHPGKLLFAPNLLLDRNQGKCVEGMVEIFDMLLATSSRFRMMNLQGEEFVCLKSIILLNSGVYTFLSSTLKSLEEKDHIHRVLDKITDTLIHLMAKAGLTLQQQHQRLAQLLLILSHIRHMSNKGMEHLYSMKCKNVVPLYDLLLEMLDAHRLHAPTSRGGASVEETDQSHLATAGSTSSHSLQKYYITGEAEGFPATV
# [8] = loss of viability in HepG2 cells – cell-based, CellTiter-Glo, cherry-picked, cytotoxicity control for Shn3 inhibitor project, dose response (AID 624134); format: functional
# [9] = Trypanosoma cruzi growth suppression in host cells – NIH3T3 host cells, beta-gal luminescence, confirmation (AID 2044); format: functional, cell-based;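 further: intracellular parasites grown in NIH/3T3 mouse fibroblasts as host cells; luminescent beta-galactosidase reporter signal from transgenic T. cruzi replicating inside host cells; inhibitors lower the luminescence signal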
# [10] = NIH3T3 cell viability loss – ATP luminescence, mouse fibroblasts, counter-screen, dose response (AID 2010); format: functional, cell-based;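 further: cells exposed to compound for about 90 hours before reading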
# [11] = biological target: Neurotensin receptor type 1 (Homo sapiens, UniProt P30989); format: functional;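 further: Image-based confirmatory dose-response assay measuring agonist activity at NTR1; NTR1-expressing U2OS osteosarcoma cells imaged for beta-arrestin GFP spot formation; agonist potency where compounds increase beta-arrestin recruitment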
# [12] = Intein inhibitors as potential Tuberculosis drugs, a cytotoxicity screen. [Related pubchem assays (depositor defined):AID2221, AID2223, AID434968, AID435010, AID449749, AID449750, AID489010]; format: functional
# [13] = non-specific 3'UTR reporter inhibition in Clone20-Shn3RL – cell-based, Renilla luciferase, cherry-picked, counter-screen for Shn3 inhibitor project, dose response (AID 624133); format: functional
# [14] = biological target: T4, Replicative DNA helicase DnaB (Mycobacterium tuberculosis, UniProt P9WMR3); experiment: DnaB intein splicing inhibitors, dose response, biochemical, cell-free fluorescence (AID 449749); format: functional
# T4 sequence (P9WMR3 whole entry): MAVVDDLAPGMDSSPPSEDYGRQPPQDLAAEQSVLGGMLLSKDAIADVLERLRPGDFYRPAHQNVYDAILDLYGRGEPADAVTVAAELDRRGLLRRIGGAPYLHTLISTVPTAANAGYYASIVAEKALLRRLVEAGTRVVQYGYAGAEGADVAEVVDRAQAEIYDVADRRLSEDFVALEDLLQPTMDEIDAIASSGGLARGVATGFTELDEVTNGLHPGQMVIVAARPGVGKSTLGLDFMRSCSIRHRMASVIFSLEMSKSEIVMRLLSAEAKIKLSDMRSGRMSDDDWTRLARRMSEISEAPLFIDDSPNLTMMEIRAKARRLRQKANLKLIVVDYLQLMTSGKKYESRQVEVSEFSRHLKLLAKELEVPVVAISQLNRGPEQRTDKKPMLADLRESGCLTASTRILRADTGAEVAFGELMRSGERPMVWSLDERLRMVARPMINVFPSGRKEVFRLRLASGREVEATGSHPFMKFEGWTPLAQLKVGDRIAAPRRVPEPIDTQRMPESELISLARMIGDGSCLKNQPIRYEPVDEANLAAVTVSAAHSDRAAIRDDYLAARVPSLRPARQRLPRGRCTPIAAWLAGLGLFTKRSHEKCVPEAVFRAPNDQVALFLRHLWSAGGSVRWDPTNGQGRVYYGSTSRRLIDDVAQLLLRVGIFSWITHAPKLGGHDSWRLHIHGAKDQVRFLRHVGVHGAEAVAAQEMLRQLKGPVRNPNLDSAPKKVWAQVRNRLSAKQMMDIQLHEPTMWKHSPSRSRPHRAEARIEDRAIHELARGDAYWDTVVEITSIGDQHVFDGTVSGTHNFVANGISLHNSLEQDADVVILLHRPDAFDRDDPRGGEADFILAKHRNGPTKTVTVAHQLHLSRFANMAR
# Protein RecA = biological target: T5, Protein RecA (Mycobacterium tuberculosis, UniProt P9WHJ3); experiment: Fluorescence Cell-Free Homogeneous Dose Retest to Identify Inhibitors of RecA-Intein Splicing Activity. [Related pubchem assays (depositor defined):AID2097, AID2223, AID489010, AID492950]; format: functional
# T5 sequence (P9WHJ3 whole entry): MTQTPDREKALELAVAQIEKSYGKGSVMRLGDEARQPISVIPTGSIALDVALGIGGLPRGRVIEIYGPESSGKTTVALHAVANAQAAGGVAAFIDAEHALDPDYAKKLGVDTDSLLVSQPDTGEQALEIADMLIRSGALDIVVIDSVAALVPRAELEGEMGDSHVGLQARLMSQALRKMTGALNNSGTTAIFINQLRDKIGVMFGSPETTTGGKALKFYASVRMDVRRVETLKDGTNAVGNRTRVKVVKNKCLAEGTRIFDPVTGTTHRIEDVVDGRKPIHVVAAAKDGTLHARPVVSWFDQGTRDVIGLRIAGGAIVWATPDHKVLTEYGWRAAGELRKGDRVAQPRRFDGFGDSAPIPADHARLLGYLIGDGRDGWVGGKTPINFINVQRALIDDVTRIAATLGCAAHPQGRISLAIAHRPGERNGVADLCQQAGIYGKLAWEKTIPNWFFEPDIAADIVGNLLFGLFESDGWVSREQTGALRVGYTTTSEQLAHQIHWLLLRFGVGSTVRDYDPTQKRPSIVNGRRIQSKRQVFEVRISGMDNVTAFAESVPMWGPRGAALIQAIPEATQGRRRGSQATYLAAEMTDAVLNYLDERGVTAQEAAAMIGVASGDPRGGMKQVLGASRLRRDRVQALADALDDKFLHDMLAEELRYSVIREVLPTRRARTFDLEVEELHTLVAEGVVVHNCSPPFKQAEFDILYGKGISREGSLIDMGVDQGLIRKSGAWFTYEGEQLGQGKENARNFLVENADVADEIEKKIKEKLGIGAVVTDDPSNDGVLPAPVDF
# [15] = biological target: DNA damage-inducible transcript 3 protein (Mus musculus, UniProt P35639); format: functional, Cricetulus griseus
# [16] = reduction of Shn3 3'UTR-driven luciferase in osteoblasts – cell-based, Clone20 osteoblasts, firefly luciferase, cherry-picked, dose response (AID 624132); format: functional;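 further: firefly luciferase luminescence from reporter carrying the Shn3 3'UTR in osteoblasts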
# [17] = biological target: T6, Voltage-gated N-type calcium channel alpha-1B subunit/Amyloid beta A4 precursor protein-binding family A member 1 (Homo sapiens, UniProt Q00975+Q02410); format: protein assay
# T6 sequence (Q00975 whole entry): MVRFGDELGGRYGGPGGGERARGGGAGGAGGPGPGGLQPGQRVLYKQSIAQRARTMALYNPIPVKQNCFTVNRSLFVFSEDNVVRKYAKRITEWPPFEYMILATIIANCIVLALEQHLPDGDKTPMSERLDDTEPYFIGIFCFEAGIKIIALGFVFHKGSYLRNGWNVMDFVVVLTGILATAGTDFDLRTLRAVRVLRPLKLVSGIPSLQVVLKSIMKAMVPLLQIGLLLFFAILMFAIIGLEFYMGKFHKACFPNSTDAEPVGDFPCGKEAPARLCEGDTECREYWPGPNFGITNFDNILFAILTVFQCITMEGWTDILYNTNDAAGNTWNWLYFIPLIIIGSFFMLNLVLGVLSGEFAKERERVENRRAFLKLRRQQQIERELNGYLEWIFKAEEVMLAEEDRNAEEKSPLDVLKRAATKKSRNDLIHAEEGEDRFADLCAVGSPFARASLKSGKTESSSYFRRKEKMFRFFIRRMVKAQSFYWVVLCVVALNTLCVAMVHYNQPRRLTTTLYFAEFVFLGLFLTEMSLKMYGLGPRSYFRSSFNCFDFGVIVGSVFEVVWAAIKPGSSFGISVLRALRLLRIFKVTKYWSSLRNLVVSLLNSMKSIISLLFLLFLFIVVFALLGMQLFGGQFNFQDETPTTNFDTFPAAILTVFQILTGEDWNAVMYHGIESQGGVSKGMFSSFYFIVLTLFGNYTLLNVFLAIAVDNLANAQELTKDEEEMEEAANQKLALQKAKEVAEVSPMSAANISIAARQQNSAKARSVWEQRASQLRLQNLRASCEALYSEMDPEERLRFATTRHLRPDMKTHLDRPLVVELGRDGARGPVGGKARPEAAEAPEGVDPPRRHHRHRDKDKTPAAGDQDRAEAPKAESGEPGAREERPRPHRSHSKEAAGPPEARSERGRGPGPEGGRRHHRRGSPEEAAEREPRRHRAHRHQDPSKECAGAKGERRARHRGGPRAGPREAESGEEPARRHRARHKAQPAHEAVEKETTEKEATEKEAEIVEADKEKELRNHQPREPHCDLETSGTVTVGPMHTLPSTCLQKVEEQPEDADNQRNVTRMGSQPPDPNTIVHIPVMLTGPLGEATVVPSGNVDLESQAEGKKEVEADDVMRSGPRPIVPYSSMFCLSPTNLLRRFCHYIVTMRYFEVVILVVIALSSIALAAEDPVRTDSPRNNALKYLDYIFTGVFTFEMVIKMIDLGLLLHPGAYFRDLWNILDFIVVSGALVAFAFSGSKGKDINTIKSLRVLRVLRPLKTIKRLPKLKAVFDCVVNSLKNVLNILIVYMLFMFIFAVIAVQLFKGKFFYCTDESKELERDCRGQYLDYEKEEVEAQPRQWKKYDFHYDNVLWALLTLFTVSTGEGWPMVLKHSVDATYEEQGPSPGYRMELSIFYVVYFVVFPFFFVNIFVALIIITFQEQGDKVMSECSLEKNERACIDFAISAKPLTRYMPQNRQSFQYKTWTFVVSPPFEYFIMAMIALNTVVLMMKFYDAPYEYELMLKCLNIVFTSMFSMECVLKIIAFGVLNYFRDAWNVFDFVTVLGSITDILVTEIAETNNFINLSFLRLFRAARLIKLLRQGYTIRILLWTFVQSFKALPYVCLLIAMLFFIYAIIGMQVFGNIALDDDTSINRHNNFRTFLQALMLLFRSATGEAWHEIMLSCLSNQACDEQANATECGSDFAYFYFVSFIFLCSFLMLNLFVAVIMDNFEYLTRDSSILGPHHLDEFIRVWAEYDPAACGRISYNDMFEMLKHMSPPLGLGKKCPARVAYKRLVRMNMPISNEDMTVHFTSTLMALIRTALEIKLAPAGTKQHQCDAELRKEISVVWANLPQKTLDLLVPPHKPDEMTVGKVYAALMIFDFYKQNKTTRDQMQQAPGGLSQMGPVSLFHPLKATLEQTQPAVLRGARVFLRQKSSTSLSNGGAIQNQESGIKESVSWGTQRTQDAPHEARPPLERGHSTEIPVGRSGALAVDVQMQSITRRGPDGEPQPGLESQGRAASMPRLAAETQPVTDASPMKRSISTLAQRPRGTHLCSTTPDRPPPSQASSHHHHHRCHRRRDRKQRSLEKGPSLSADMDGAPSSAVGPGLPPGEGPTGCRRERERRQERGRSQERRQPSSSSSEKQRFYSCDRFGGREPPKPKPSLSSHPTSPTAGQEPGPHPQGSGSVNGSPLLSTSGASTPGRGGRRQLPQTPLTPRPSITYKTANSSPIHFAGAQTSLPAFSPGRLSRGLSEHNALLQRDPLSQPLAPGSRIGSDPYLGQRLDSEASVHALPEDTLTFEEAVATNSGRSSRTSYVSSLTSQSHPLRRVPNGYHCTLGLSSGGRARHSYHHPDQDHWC
# T6 sequence (Q02410 whole entry): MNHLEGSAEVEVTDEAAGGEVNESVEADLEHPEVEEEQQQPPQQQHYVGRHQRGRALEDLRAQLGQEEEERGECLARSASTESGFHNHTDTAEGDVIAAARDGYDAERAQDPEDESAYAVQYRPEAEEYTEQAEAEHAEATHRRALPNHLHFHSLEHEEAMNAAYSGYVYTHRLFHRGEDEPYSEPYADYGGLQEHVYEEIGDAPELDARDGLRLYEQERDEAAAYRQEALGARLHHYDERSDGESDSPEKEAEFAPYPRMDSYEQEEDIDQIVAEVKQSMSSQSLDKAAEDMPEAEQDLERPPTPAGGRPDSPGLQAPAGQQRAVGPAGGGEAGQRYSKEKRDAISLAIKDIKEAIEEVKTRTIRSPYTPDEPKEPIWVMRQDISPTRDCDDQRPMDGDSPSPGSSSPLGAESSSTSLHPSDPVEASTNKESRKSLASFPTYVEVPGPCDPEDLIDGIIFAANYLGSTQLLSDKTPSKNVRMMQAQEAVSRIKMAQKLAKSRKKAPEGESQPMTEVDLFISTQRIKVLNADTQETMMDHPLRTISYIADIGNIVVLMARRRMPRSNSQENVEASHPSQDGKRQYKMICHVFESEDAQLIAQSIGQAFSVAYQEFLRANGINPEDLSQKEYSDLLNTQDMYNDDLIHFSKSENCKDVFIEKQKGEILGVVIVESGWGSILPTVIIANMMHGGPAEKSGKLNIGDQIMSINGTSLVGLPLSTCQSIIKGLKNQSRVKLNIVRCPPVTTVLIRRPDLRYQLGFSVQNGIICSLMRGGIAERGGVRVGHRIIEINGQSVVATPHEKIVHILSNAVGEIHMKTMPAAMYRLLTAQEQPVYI
# Ion channel NompC = Ion channel NompC (Danio rerio, UniProt Q7T1G6); experiment: Dose response cell-based high-throughput screening assay for agonists of the transient receptor potential channel N1 (TRPN1). [Related pubchem assays (depositor defined):AID1424, AID1448]; format: functional
# [18] = biological target: T6, Voltage-gated N-type calcium channel alpha-1B subunit/Amyloid beta A4 precursor protein-binding family A member 1; format: protein assay; remark: listed apart in the source
# Mucolipin-3 = Mucolipin-3 (Homo sapiens, UniProt Q8TDD5); experiment: Fluorescence counterscreen assay for […] agonists: dose response cell-based high-throughput screening assay to identify agonists of the transient receptor potential channel ML3 (TRPML3). [Related pubchem assays: 1424, 1448 ]; format: functional
# [19] = biological target: T7, Eukaryotic translation initiation factor 4H (Homo sapiens, UniProt Q15056); experiment: eIF4H binding inhibition – biochemical, uHTS, fluorescence polarization, translation initiation inhibitor project, primary screen (AID 2012)
# [20] = biological target: T7, Eukaryotic translation initiation factor 4H; experiment: inhibitors of translation initiation factor eIF4H – SAR follow-up (AID 435011); format: functional
# [21] = biological target: T8, Polyadenylate-binding protein 1 (Homo sapiens, UniProt P11940); experiment: blockers of PABP interaction with poly(A) – biochemical, fluorescence polarization, […] (AID 2014)
# T8 sequence (P11940 whole entry): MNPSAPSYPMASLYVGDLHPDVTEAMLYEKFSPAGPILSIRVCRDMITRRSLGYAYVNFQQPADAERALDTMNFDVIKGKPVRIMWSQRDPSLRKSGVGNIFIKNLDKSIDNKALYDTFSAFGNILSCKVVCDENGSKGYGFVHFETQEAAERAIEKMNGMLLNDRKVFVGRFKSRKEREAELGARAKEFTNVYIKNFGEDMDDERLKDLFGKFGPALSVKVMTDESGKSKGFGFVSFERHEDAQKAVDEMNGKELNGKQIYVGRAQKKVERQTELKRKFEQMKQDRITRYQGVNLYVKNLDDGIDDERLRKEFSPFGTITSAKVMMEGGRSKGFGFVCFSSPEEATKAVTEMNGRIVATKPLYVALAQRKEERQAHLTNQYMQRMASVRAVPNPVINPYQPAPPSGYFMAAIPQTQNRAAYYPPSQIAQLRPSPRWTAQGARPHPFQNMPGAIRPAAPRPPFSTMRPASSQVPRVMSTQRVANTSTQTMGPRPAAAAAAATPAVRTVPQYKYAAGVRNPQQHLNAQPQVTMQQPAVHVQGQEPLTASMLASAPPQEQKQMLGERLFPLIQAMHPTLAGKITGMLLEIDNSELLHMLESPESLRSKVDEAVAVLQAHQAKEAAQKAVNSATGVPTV
# [22] = biological target: T8, Polyadenylate-binding protein 1; experiment: PABP inhibition in translation initiation, SAR follow-up (AID 435018); format: functional
# Hexokinase = Hexokinase (Trypanosoma brucei, UniProt Q38C41); experiment: Confirmation assay for inhibitors of Trypanosoma brucei hexokinase 1-Analogue-first series. [Related pubchem assays (depositor defined):AID1430, AID1632, AID2516, AID2560, AID2579, AID2600, AID449725, AID492951]; format: functional
# Integrin alpha-4 = Integrin alpha-4 (Homo sapiens, UniProt P13612); experiment: allosteric modulators of alpha4 integrin VLA-4 – cell-based, LIBS antibody binding, flow cytometry, SAR follow-up (AID 488791); format: functional
# INS1 = experiment: INS-1E survival protection against cytokine death – cell-based, luminescence, retest, dose response (AID 449756); format: functional; settings: Rattus norvegicus;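 further: cell death triggered by IL-1 beta plus TNF-alpha plus IFN-gamma mixture; protective hits raise ATP signal compared with cytokine alone wells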
# [23] = Luminescence Cell-Based Dose Retest to Confirm Inhibitors of Cancer Stem Cells. [Related pubchem assays (depositor defined):AID2717, AID2721]; format: functional; settings: Homo sapiens
# Melanocortin receptor 4 = Melanocortin receptor 4 (Homo sapiens, UniProt P32245); format: functional, cell-based;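 further: Cell-based assay with luminescence read-out, confirmatory dose-response testing for agonist activity of biased ligands at MC4R; human U2OS cells with tagged receptor and beta-arrestin; potency of agonists that increase receptor coupling to beta-arrestin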
# Sequence of Melanocortin receptor 4 (P32245 whole entry): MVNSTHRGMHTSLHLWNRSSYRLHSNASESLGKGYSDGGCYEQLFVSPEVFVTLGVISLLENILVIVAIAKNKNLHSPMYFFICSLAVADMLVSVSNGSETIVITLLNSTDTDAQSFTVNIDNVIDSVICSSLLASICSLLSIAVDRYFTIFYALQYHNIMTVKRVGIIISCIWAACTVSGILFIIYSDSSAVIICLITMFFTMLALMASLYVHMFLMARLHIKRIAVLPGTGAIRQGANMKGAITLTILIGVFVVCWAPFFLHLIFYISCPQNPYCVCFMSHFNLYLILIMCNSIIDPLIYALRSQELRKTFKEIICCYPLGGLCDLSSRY
# [24] = biological target: T9, Ubiquitin-conjugating enzyme E2 N (Homo sapiens, UniProt P61088); format: functional;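 further: Dose-response confirmation in a TR-FRET assay detecting UBC13-driven polyubiquitin chain formation, inhibition measured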
# T9 sequence (P61088 whole entry): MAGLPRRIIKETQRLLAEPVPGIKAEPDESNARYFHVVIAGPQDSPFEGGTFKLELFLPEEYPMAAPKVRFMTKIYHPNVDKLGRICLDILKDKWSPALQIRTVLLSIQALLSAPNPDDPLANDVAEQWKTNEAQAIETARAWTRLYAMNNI
# 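Wherever CC50 is given: cells exposed to compound for 72 hours before luminescence readout.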
smiles,measurement,setting,value
O=C(CSc1n[nH]c(-c2ccccc2Cl)n1)Nc1ccccc1F,IC50,[1],> 100 µM (inactive)
same,IC50,[2],4.7 µM (active)
same,IC50,[3],> 100 µM (not active)
N#Cc1c(NCCN)nc(NCc2ccccc2)c2c1CCN(Cc1ccccc1)C2,IC50,[4],47.8 µM (active)
same,EC50,[5],> 20 µM (not active)
same,EC50,[6],> 20 µM (not active)
same,IC50,[7],4.57 µM (active)
same,IC50,Estrogen receptor,11.8 µM (active)
Cc1cc(Br)c2c(c1)/C(=C/C(=O)c1cccs1)C(=O)N2,AC50,[8],48.5 µM (active)
same,EC50,[9],1.95 µM (active)
same,EC50,[10],> 60 µM (not active)
same,EC50,[11],17.4 µM (active)
same,CC50,[12],18.4 µM (active)
same,AC50,[13],20.7 µM (active)
same,AC50,[14],2.46 µM (active)
same,EC50,Protein RecA,3.27 µM (active)
same,Absolute IC50 (CHOP),[15],10 µM
same,AC50,[16],19.9 µM (active)
COc1cc(/C=C2\SC(=S)N(c3cccnc3)C2=O)ccc1O,IC50,[17],> 50 µM (inactive)
same,EC50,Ion channel NompC,> 29.9 µM (inactive)
same,IC50,[18],4.4 µM (active)
same,EC50,Mucolipin-3,> 29.9 µM (not active)
COC(=O)c1c(Sc2ccccc2)c2ccccc2n1C,IC50,[19],> 100 µM (inactive)
same,IC50,[20],4.23 µM (active)
same,IC50,[21],2.76 µM (active)
same,IC50,[22],13.8 µM (active)
Cn1c2ccccc2c(=O)n1-c1ccccc1,IC50,Hexokinase,> 25 µM (inactive)
CN(C)CCOc1ccc(-c2c(-c3ccccc3)sc3ccccc23)cc1,EC50,Integrin alpha-4,> 30 µM (inactive)
same,AC50,INS1,6.82 µM (active)
same,AC50,[23],2.93 µM (active)
same,EC50,Melanocortin receptor 4,> 89.2 µM (inactive)
same,IC50,[24],> 20 µM (inactive)
